From US20160031937A1, “NEURAL REGENERATION PEPTIDES AND USES THEREFOR” (CURONZ HOLDINGS COMPANY LIMITED, priority 2013, published 2016) come the findings set out here.

Test [1] relates to human W9-hESCs. The test can be described thus: TUNEL staining for apoptotic cell death after H2O2 injury. The test is classed as cell-based. To be noted: H2O2 oxidative stress, 24 hours; 100 fM NRP2945. On the procedure:
Neuronal differentiation was achieved using the noggin induction method described for mouse neurospheres as adapted by Dottori for human neurospheres (Dottori & Pera, 2007). The colonies were maintained at 37° C., with 5% CO2 in hESC medium supplemented with 500 ng/ml of Noggin for 14 days while replacing Noggin every other day.
At this point, the cells were washed with PBS and the colonies were again mechanically dissociated, but this time the central (differentiated) part of the colony was also cut into smaller pieces using a 26-gauge needle. […]
The media was replaced with fresh NBM-AO and the cells were incubated for a further 20 hours containing drug, before again measuring LDH. Oxidative stress was induced by adding 50 μM fresh H2O2 (Sigma, H1009) to the growth factor negative NBM on initiation of the experiment with continued culture for 4 hours when LDH was measured and NBM-AO without H2O2 was returned to the culture which was maintained for a further 20 hours before again measuring LDH. […]
Tunnel positive cells, wells were imaged and the images re-coded independently before quantitation. No additional blinding was performed for the machine read LDH assay process.

In test [2] the test system is neuronal stem cells. The test can be described thus: Neuronal chemoattraction. In kind it is cell-based.
The subject of test [3] is NRP 13q13.2 gene expression. The test can be described thus: NRP 13q13.2 gene expression by semi-quantitative RT-PCR in NTERA-2 cells. In kind it is cell-based, human. As for the experimental part: mRNA was extracted according to standard procedures (TRIzole® from Invitrogen or RNeasy Mini from Qiagen). The mRNA fraction was subjected to DNase I treatment using DNaseI incubation mixture. For this treatment, 10 μl DNaseI stock plus 70 μl buffer was added to mRNA preparation and incubated for 5 minutes at room temperature. cDNA synthesis was then carried out according to standard procedures (SuperScript® III Reverse Transcriptase from Invitrogen).
The optimized RT-PCR strategy used an intron-spanning forward primer with high GC-content and TM (78° C.) and a reverse primer with a lower TM (60° C.). These primers are shown in FIG. 10, and also further below. The mRNA was treated with DNase I before starting the synthesis of cDNA, as the intron-spanning primer only bridged an intron of 9 nucleic acids.
The expected RT-PCR product was 221 by in length. PCR conditions included annealing at 58° C. and 36 total cycles. Samples were incubated at 94° C. for 5 minutes as the start of the GeneAmp® cycler operation. The 36 cycles included the sequence: 94° C. for 30 seconds; 58° C. for 30 seconds; 72° C. for 30 seconds; followed by cooling to 15° C. at the end of the PCR.
The PCR-reaction included: 10× buffer (2.50 μl), 50 mM MgCl2 (0.75 μl), 10 mM dNTPs (0.50 μl), Primer 1 (0.50 μl), Primer 2 (0.50 μl), Taq Polymerase (0.10 μl), cDNA (1.00 μl ), H2O (19.15 μl), to yield a total volume of 25.00 μl. Taq DNA Polymerase was sourced from Invitrogen (Platinum® Taq Polymerase).
NTERA-2 (ATCC No. CRL-1973) is a human carcinoma derived pluripotent cell line that has only single copies of chromosome 1, 10, 11 and 13. This was the impetus for using 36 cycles of PCR for detection of NRP expression.
Undifferentiated NTERA-2 cells were obtained. Frozen stocks were prepared with a maximum of 2 passages. NRP expression could be assessed in cells having up to 4-5 passages. The cell culture medium included ATCC-formulated DMEM plus 10% FCS. The medium was exchanged every 2-3 days. For passaging, cells were dislodges by scraping and then transferred into 75cm^2 flasks. An initial seeding included 5 million cells in 12-15 ml of cell medium per flask.
Subcultivation was performed for gene expression tests. For subcultivation, cells were dislodged by scraping and then gathered by centrifugation at 1500 rpm for 7 minutes, at 4° C. The media was discarded and the cells were resuspended in 16 ml fresh DMEM/10%FBS. The expected yield was 12-15 million cells in the flask. Thus, the resuspended cells were at a concentration of about 1 million cells per ml.
For passage 3, the remaining 4 ml of cell suspension plus 8 ml culture medium was transferred into new T75 cultivation flask.
[…] All conditions were applied for 15 minutes, 30 minutes, and 60 minutes.
mRNA was then collected. Cells were washed once at the end of the treatment with subsequent cell scraping. Cells were passed through 25-gauge needle into a 15 ml falcon tube. Falcon tube cell content was aspirated, washed once with DMEM, followed by trypsinization. […]
Centrifugation was carried out for 7 minutes at 1500 rpm, at 4° C. The pellets were then ready to be stored either at -80° C. or in liquid nitrogen until RNA extraction.
For RNA extraction, thawed cell pellets were prepared according to manufacturer's instructions (RNeasy Mini from Qiagen). RNA concentration was determined by NanoDropTM. […] For synthesis of sufficient quantities of cDNA, the RNA concentration in the cell samples was ensured to be between 10-20 ng/μl. […]

Test [4] concerns endogenous NRP gene expression. The test is described as follows: Endogenous NRP gene expression in human embryonic W9 stem cells. The test is classed as cell-based. To be noted: 100 fM NRP2945.
Test [5] has as its target T1, homodimeric CXCR4 receptor (Homo sapiens, UniProt P61073).
T1 construct: host or cells: HEK293
The test is described as follows: 125I-SDF-1 displacement binding study (CEREP). To be noted: recombinant homodimeric CXCR4 expressing HEK293 cells; unlabelled peptide in competition. On the procedure:
This was determined by radioactive ^125I-SDF-1 displacement studies using CXCR4 homodimeric receptors and unlabelled NNZ-4921 and NRP2945 in competition.

Setting [6] is: normoxic NTERA-2 cells, 1 pM NRP2945.

Square brackets hold non-standard residues; d marks the D form. Ends that are not written are not given here. Aib = CC(C)(N)C(=O)O

T1 sequence (P61073 whole entry): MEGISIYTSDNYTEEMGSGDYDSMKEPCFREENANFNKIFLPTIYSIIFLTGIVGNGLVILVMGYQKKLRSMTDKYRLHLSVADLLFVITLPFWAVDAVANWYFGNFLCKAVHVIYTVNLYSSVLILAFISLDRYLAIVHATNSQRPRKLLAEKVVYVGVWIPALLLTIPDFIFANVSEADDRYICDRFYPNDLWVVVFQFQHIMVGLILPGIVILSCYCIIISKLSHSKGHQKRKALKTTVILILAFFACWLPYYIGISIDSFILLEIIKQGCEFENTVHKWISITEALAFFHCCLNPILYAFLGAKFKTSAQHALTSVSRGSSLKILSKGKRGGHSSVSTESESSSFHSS

Regarding “Gly Arg Arg Ala Ala Pro Gly Arg Aib Gly Gly (GRRAAPGR[Aib]GG) [NRP2945, synthetic 11-mer peptidomimetic optimized for stability and pharmacokinetics]”, the “cells spared from apoptosis (TUNEL)” value in test [1] is 56.2%. Moreover, the “neuronal chemoattractive potency relative to SDF-1” value in test [2] (NRP2945 versus SDF-1) was “more than 1 million”. Besides, in test [2] (preliminary experiments), the “EC50 values for chemoattraction” value is “lower femtomolar range”. In test [3] (NTERA-2 cells, 100 pM NRP2945), the “time to stimulated endogenous NRP gene expression after administration” value was in the range of 5 to 10 min. In test [3] (NTERA-2 cells, 0.5 mM 3-NP with simultaneous 1 pM NRP2945), the “NRP 13q13.2 gene expression during oxidative stress” value was “up-regulated after 15 minutes and stays elevated during the period of analysis”. Also, the “time frame of exposure for up-regulation of endogenous NRP gene expression (13q13.2)” value in test [3] (human NTERA-2 cells, autocrine, unpublished results) is ≤ 10 min. In addition, in test [3] (setting [6]), the “gene expression of NRP 13q13.2” value is reported as “highly elevated after only 15 minutes” and the “time of peak NRP 13q13.2 gene expression after peptide contact” value was 30 min. Besides, in test [4], the “time to stimulated endogenous NRP gene expression after administration” value was 5 to 10 min. Also, the “displacement of 125I-SDF-1 from homodimeric CXCR4 receptor” value in test [5] was “do not bind to the homodimeric CXCR4 receptor”.
